Reference: patent publication US20090076067A1, “PHARMACEUTICAL COMPOSITION COMPRISING AZARHODACYANINE COMPOUND AS ACTIVE INGREDIENT” (priority 2005, published 2009)

What was measured:
[1] = tested on: Plasmodium berghei NK 65 strain; experiment: animal or person; type: in vivo; settings: for Survival days (mean survival days, treatment group minus control group) / Recovery Rate (suppression): 4 days; for Recovery Rate (suppression): P. berghei infected ICR mice; for Acute toxicity in treated mice: 25 mg/kg/day dose
Source text: For a test to evaluate therapeutic effect of the compound, 4-day suppressive test which is commonly used for in vivo test to evaluate activity of anti-malaria compound was used. In this experiment, rodent malaria protozoa (Plasmodium berghei NK 65 strain) were used. The infected blood was collected from 5-weeks age (SPF) ICR strain male mouse which were infected intraperitoneally and successively cultured. From the caudal vein of the infected mouse, blood was collected to calculate infection rate. After confirming that infection rate was adequately elevated (10% to 20% infection), the malaria infected blood was collected from the heart of the mouse. The infection rate and count of the red blood cells (cells/mL) were calculated. The infected red blood cell was diluted with PBS buffer to achieve […] protozoa per 0.2 mL dose. The infected cells were injected to the caudal vein of uninfected mouse (ICR strain, male, 5-weeks age) to cause infection. Five mice were made into one group, and the test compound was administered in predefined concentration. From 2 hours after infection, the compound was administered every 24 hours for straight 4 days.
The compound of the invention to be used in this test was dissolved in saline (Otsuka Pharmaceutical Co., Ltd.) to obtain test solution of predefined concentration. When the compound was not dissolved in saline, it was dissolved in SSV (saline containing 0.5% sodium=carboxymethyl cellulose, 0.5% benzyl alcohol, 0.4% Tween 80) to prepare test solution. For the control group (non-treatment group), only saline (Otsuka) was administered. Positive controls S-1 to S-5 were dissolved in saline (Otsuka) or SSV in predetermined concentration to prepare test solution. When the compound was not dissolved in saline, it was dissolved in SSV. After measuring weight of each mouse, the dose for each mouse was calculated to achieve 5.0 to 40 mg concentration for weight1 kg.
Five mice were made into one group, and the test compound was administered intraperitoneally at predefined concentration. From 2 hours after infection, the compound was administered every 24 hours for straight 4 days. Subsequent to the 24 hours after last treatment, blood was collected from the tail of the mouse to prepare thin layer smear in order to count malaria protozoa infection in the treatment group and the control group under microscope. The mice showing maximum value and minimum value were excluded from the average calculation (average was calculated for three mice), to determine malaria protozoa infection rate (Parasitemia).
Using malaria protozoa infection rate thus calculated, recovery rate obtained from the test compound (suppression) was determined.
Recovery rate: suppression(%)=(b−a)/b×100 a: Protozoa infection rate in the treatment group b: Protozoa infection rate in the control group Mean survival days: MSD(day)=c−d c: Average days from the initial treatment (date of malaria infection) to the date of death for the treatment group (5 mice) d: Average days from the date of malaria infection to the date of death for the non-treatment (control) group (5 mice) […]
Tables 5 to 7 illustrate the recovery rate (%) and survival days (day) of malaria infected mice treated with intraperitoneal injection of the test compound and the control compound at predefined concentration. The meaning of symbols in the table is as follows.

[2] = tested on: Plasmodium Falciparum k1 strain; experiment: Chloroquine-resistant tropical malaria protozoa proliferation inhibition screening test; type: cell-based; settings: chloroquine-resistant K1 strain; 3H-hypoxanthine uptake
Description: In this experiment, Plasmodium Falciparum k1 strain protozoa were used. The medium used in the experiment was filter-sterilized RPMI-1640 medium. To the medium human serum was added to achieve 5% concentration. The protozoa was cultured under condition of O2 concentration 3%, CO2 concentration 4%, N2 concentration 93%, and temperature 37° C.
The cultured malaria infected red blood cells were collected by centrifugation, diluted with non-infected red blood cells, to achieve initial infection rate 0.15%. The hematocrit was 2.5%.
To each well in a 96-well culture plate, 200 μL malaria infected culture was added, and either test solution containing test compound at predefined concentration or DMSO having no test compound was added. Each test solution was prepared in duplicate. After 48 hours culture under 37° C., hypoxanthine labeled with radioactive tritium (^3H) of 0.5 μCi was added to each well. After culturing under same condition for 24 hours, the product was collected on a glass fiber filter and washed. The intensity of radiation was measured by Beta plate liquid scintillation counter (Wallac Inc.), to determine malaria protozoa infection rate in test compound samples and control samples.
Using the malaria protozoa infection rate, the proliferation inhibition rate was calculated according to the following equation to determine 50% proliferation inhibition concentration (EC50).
Proliferation inhibition rate(%)={1−(b−a)/(c−a)}×100
a: initial infection rate b: infection rate of test compound solution c: infection rate of the control

[3] = tested on: Rat-derived L6 cells (rat skeletal myoblast cell); experiment: Rat L6 cell proliferation inhibition test; type: cell-based; settings: Table 1, 72 hours, Alamar Blue
Description: Rat-derived L6 cells (rat skeletal myoblast cell) were used for this test. […] The sample was cultured under CO2 concentration 5% and temperature 37° C. Either the composition of the invention or control was dissolved into DMSO, to prepare test solutions having predefined concentration.
The samples were precultured until logarithmic growth phase was reached. Then the culture was transferred to each well in a 96-well culture plate, and either test solution containing test compound at predefined concentration or DSMO without compound was added. The test solution was duplicated.
The plate was cultured in an incubator for 72 hours, to examine proliferation inhibition activity. The activity was examined as follows. Alamar Blue water solution 10 μL was added to each well, and culture was continued for 2 hours. Next, the culture plate was mounted on a fluorescence microplate reader (Spectramax Gemeni XS; Molecular Devices Corporation, U.S.), and irradiated with excitation wavelength 536 nm to determine fluorescence at 588 nm. The survival rate of L6 cells in the test solution sample and control sample was calculated.
Proliferation inhibition rate(%)={(C−A)/(B−A)}×100
A: Initial cell count B: Cell count in control after 3 days C: Cell count in test solution after 3 days

[4] = Plasmodium berghei, ip, 96 h, read-out: Recovery Rate (suppression)
[5] = dose 25 mg/kg/d intraperitoneally
[6] = dose 5.0 mg/kg/d intraperitoneally

CCN1C(=O)/C(=C2\C=Cc3ccccc3N2C)S/C1=N\c1cccc[n+]1C [Compound A-14]
inhibition in vivo at 10 mg/kg/day [1, 4]: 64.5%

CCN1C(=O)/C(=C2\C=CC=CN2C)S/C1=N\c1cc[n+](C)c2cc(Cl)ccc12 [Compound A-15]
inhibition in vivo at 25 mg/kg/day [1, 4]: 60.3% | Survival days (mean survival days, treatment group minus control group) [1, 5]: 2.0 days

CCn1c(=O)/c(=C2\C=CC=CN2C)s/c1=C1\S/C(=N\c2sc3cc(Cl)ccc3[n+]2C)N(c2ccccc2)C1=O [Compound B-11]
inhibition in vivo at 25 mg/kg/day [1, 4]: 82.7%

CCn1c(=O)/c(=C2\C=CC=CN2C)s/c1=C1\S/C(=N\c2scc(-c3ccc(Cl)cc3)[n+]2C)N(c2ccccc2)C1=O [Compound B-13]
inhibition in vivo at 25 mg/kg/day [1, 4]: 95.6%

CCn1c(=O)/c(=C2\C=CC=CN2C)s/c1=C1\S/C(=N\c2sc3cc(Cl)ccc3[n+]2C)N(Cc2ccccc2)C1=O [Compound B-16]
inhibition in vivo at 20 mg/kg/day [1, 4]: 97.4%

CCn1c(=O)/c(=C2\C=CC=CN2C)s/c1=C1\S/C(=N\c2sc3cc(Cl)ccc3[n+]2C)N(c2ccc(OC)cc2)C1=O [Compound B-17]
inhibition in vivo at 25 mg/kg/day [1, 4]: 73.1% | Survival days (mean survival days, treatment group minus control group) [1, 5]: 6.8 days

CCn1c(=O)/c(=c2\nc3c(o2)=CC=CN3C)s/c1=C1\S/C(=N\c2sc3cc(Cl)ccc3[n+]2C)N(Cc2ccccc2)C1=O [Compound B-18]
Survival days (mean survival days, treatment group minus control group) [1, 5]: 7.0 days | Recovery Rate (suppression) [1, 5]: 22.39%

CCN1C(=O)/C(=c2/s/c(=C3/C=CC=CN3C)c(=O)n2CC)S/C1=N\c1scc[n+]1C [Compound B-19]
EC50 P. falciparum K1 [2]: 0.0166 µg/mL | EC50 cytotoxicity L6 [3]: 27.92 µg/mL

CCN1C(=O)/C(=c2/s/c(=c3/nc4c(o3)=CC=CN4C)c(=O)n2CC)S/C1=N\c1scc[n+]1C [Compound B-20]
Survival days (mean survival days, treatment group minus control group) [1, 5]: 6.3 days | Recovery Rate (suppression) [1, 5]: 56.1% | EC50 P. falciparum K1 [2]: 0.017 µg/mL | EC50 cytotoxicity L6 [3]: 69.34 µg/mL

CCn1c(=O)/c(=C2\C=CC=CN2C)s/c1=C1\S/C(=N\c2scc[n+]2C)N(Cc2ccccc2)C1=O [Compound B-21]
Survival days (mean survival days, treatment group minus control group) [1, 5]: 7.0 days | Recovery Rate (suppression) [1, 5]: 80.4%

CCn1c(=O)/c(=C2\SCCN2C)s/c1=C1\S/C(=N\c2scc[n+]2C)N(Cc2ccccc2)C1=O [Compound B-23]
Survival days (mean survival days, treatment group minus control group) [1, 5]: 7.0 days | Recovery Rate (suppression) [1, 5]: 85.1%

CCn1c(=O)/c(=C2\SCCN2C)s/c1=C1\S/C(=N\c2sc3cc(Cl)ccc3[n+]2C)N(c2ccc(OC)cc2)C1=O [Compound B-26]
Survival days (mean survival days, treatment group minus control group) [1, 5]: 2.0 days | Recovery Rate (suppression) [1, 5]: 64.3%

CCN1C(=O)/C(=c2/s/c(=C3/SCCN3C)c(=O)n2CC)S/C1=N\c1scc[n+]1C [Compound B-27]
Survival days (mean survival days, treatment group minus control group) [1, 5]: 2.0 days | Recovery Rate (suppression) [1, 5]: 55.4%

CCN1C(=O)/C(=c2/s/c(=C3/SCCN3C)c(=O)n2CC)S/C1=N\c1sc2ccccc2[n+]1C [Compound B-31]
Survival days (mean survival days, treatment group minus control group) [1, 5]: 1.7 days | Recovery Rate (suppression) [1, 5]: 90.6%

C=CCN1C(=O)/C(=c2/s/c(=C3/C=CC=CN3C)c(=O)n2CC)S/C1=N\c1sc2cc(Cl)ccc2[n+]1C [Compound B-38]
Recovery Rate (suppression) [1, 5]: 95.7%

C=CCN1C(=O)/C(=c2/s/c(=C3/C=CC=CN3C)c(=O)n2CC)S/C1=N\c1scc[n+]1C [Compound B-40]
EC50 cytotoxicity L6 [3]: 27.38 µg/mL

C=CCN1C(=O)/C(=c2/s/c(=C3/SCCN3C)c(=O)n2CC)S/C1=N\c1scc[n+]1C [Compound B-41]
Survival days (mean survival days, treatment group minus control group) [1, 5]: 1.3 days | Recovery Rate (suppression) [1, 5]: 58.5%

CCN1C(=O)/C(=C/C=C2\Sc3ccccc3N2C)S/C1=N\c1sc2cc(Cl)ccc2[n+]1C [Compound C-2]
Recovery Rate (suppression) [1, 6]: 32.1% | EC50 P. falciparum K1 [2]: 0.02495 µg/mL | EC50 cytotoxicity L6 [3]: 11.33 µg/mL

CCN1C(=O)/C(=C/C=C2\Sc3ccccc3N2C)S/C1=N\c1c(O)ccc[n+]1C [Compound C-3]
Recovery Rate (suppression) [1, 6]: 43.9%

CCN1C(=O)/C(=C/C=C2\Sc3ccccc3N2C)S/C1=N\c1scc(-c2ccc(Cl)cc2)[n+]1C [Compound C-4]
inhibition in vivo at 5 mg/kg/day [1, 4]: 37.9%

CCn1c(=O)/c(=C2\Sc3ccccc3N2C)s/c1=C\c1cccc[n+]1CC [Compound S-1, reference compound]
inhibition in vivo at 10 mg/kg/day [1, 4]: 30% | Toxicity noted [1, 5]: toxic

C=CCn1c(=O)/c(=C2\Sc3ccccc3N2C)s/c1=C\c1cccc[n+]1C [Compound S-2, reference compound]
Acute toxicity in treated mice [1]: caused death | inhibition in vivo at 10 mg/kg/day [1, 4]: 27%

CCn1c(=O)/c(=C2\Sc3ccc4ccccc4c3N2C)s/c1=C\c1cccc[n+]1C [Compound S-4, reference compound]
Acute toxicity in treated mice [1]: caused death | inhibition in vivo at 5 mg/kg/day [1, 4]: 17.1% | inhibition in vivo at 10 mg/kg/day [1, 4]: 36% | Toxicity noted [1, 5]: toxic

CCn1c(=O)/c(=c2/s/c(=C3/Sc4ccccc4N3C)c(=O)n2CC)s/c1=C\c1sc2ccccc2[n+]1C [Compound S-5, reference compound]
inhibition in vivo at 5 mg/kg/day [1, 4]: 41%

C=CCn1c(=O)/c(=C2\C=CC=CN2C)s/c1=c1\s/c(=C\c2cccc[n+]2C)n(CC)c1=O [Compound S-6, reference compound]
inhibition in vivo at 50 mg/kg/day [1, 4]: 25.9% | Survival days (mean survival days, treatment group minus control group) ([1]; dose 50 mg/kg/d intraperitoneally): 0 days

C=C[C@H]1C[N@@]2CC[C@H]1C[C@H]2[C@H](O)c1ccnc2ccc(OC)cc12 [Quinine, reference compound]
inhibition in vivo at 10 mg/kg/day [1, 4]: 18.6% | Survival days (mean survival days, treatment group minus control group) ([1]; dose 10 mg/kg/d intraperitoneally): 1.0 days
